Test results published in patent publication US20250073257A1, “SMALL MOLECULE AND SIRNA INHIBITORS AGAINST LIPOCALIN-2” (UNIVERSITY OF PUERTO RICO, priority 2021, published 2025).
“Also recorded” adds a separate entry of the source.

Legend:
SUM149 cells [1] = assay: Cell viability, Alamar Blue, SUM149 cells; format: cell-based; conditions: Homo sapiens, 72 hours, vs DMSO, read-out: reduction of cell viability
Method: MDA-IBC3 cells (5.5×10^4 cells/mL) or SUM149 (5.0×10^4 cells/mL) were seeded in 96-well plates. Twenty-four hours later, cells were transiently transfected with serial dilutions of LCN2-siRNA and NC-siRNA (12.5 nM, 25 nM, 50 nM, and 100 nM final concentrations) with Lipofectamine 2000 RNAiMax. Seventy-two hours after transfection, the medium was removed, and cell viability was measured using Alamar blue dye (Invitrogen, CA, USA) as previously described by. Optical density (OD) values were obtained spectrophotometrically in a plate reader (Bio-Rad) after 3 hours of dye incubation. In all cases, percentages of cell viability were obtained after blank OD subtraction, taking the untreated cells values as a normalization control.
For cell viability, SUM149 (5.0×10^4 cells/mL) were seeded in 96-well plates. Twenty-four hours later, cells were treated with serial dilutions (0.01 μM, 0.1 μM, 1.0 μM, 10 μM, and 100 μM, final concentrations) of the LCN2 inhibitors. Seventy-two hours after treatment, cell viability was performed as above described, taking the DMSO (1%) treated OD values as the normalization control. For colony formation assays, SUM149 cells (5.0×10^4 cells/mL), MCF7 (4.5×10^4 cells/mL), MCF7-LCN2 (4.5×10^4 cells/mL), or MCF7-EV (4.5×10^4 cells/mL) were seeded into 24-well plates and incubated at 37° C. […]

SUM149 cells [2] = assay: Colony formation (clonogenic) assay, SUM149 cells; format: cell-based, human; conditions: vs DMSO
Method: Cell growth was assessed by colony formation assays: MDA-IBC3 cells (5.5×10^4 cells/mL) or SUM149 (5.0×10^4 cells/mL) were seeded into 6-well plates. Twenty-four hours later, siRNAs were added to the cells. Twenty-four hours (MDA-IBC3 cells) or forty-eight hours (SUM149) after transfection, 1500 cells for MDA-IBC3 and 1000 cells for SUM149 were seeded into 10-cm Petri dishes containing Hams F-12 (10% FBS, 0.1% antibiotic/antimycotic solution, 0.001% insulin from bovine pancreas, and 0.005% hydrocortisone), and incubated at 37° C. Twelve days (SUM149 cells) or 19 days (MDA-IBC3 cells) later, colony-forming cells were stained with 0.5% crystal violet solution. Colonies (with at least 50 cells) were counted under a light microscope (Olympus CKX41) in five random fields with a total magnification of 10×.
(§1) For cell viability, SUM149 (5.0×10^4 cells/mL) were seeded in 96-well plates. Twenty-four hours later, cells were treated with serial dilutions (0.01 μM, 0.1 μM, 1.0 μM, 10 μM, and 100 μM, final concentrations) of the LCN2 inhibitors. Seventy-two hours after treatment, cell viability was performed as above described, taking the DMSO (1%) treated OD values as the normalization control. For colony formation assays, SUM149 cells (5.0×10^4 cells/mL), MCF7 (4.5×10^4 cells/mL), MCF7-LCN2 (4.5×10^4 cells/mL), or MCF7-EV (4.5×10^4 cells/mL) were seeded into 24-well plates and incubated at 37° C. Twenty-four hours later, LCN2 inhibitors bought to Asinex corporation (North chestnut, NC) were dissolved in DMSO (0.2%) and added to the cells at 10 μM, 1 μM, and 0.1 μM (final concentrations). NT cells and DMSO (0.2%) treated cells were used as controls. SUM149 (500 cells) and MCF7 (3,000 cells) cells were seeded in 6-well plates per treatment for colony formation assays.

MCF7-LCN2 cells = assay: Colony formation assay, MCF7-LCN2 cells; format: cell-based, human; conditions: vs untreated cells
Method: (§2) Ectopic LCN2 expression was performed in breast cancer MCF7 cells. Human LCN2 open reading frame (LCN2ORF) (RC207685, OriGene, Rockville, MD) or empty vector pCMV6-Entry (MCF7-EV) (PS100001, OriGene, Rockville, MD was stable transfected into MCF7 cells. MCF7 cells (4.0×10^4 cells/mL) were seeded in 6-well plates and incubated at 37° C. Twenty-four hours later, 5 μg of LCN2-ORF were mixed with Lipofectamine 2000 RNAiMax transfection reagent (Life Technologies) at a 1:1 (v/v) (plasmid: transfection reagent) in serum and antibiotic-free Opti-MEM medium (Life Technologies) and incubated at 37° C. Six hours later medium was replaced with MCF7 culture media and incubated at 37° C. Forty-eight hours later the antibiotic neomycin was added at a final concentration of 1.8 mg/mL for the selection of transduced MCF7 cells. After 2-3 weeks, independent colonies were picked and cultured separately as independent clones.
as §1

p-Akt = assay: Akt/p-Akt measurements by Western blot; format: cell-based, human; conditions: SUM149 cells; for total Akt protein levels: all doses and time-points tested
Method: Cell lysates were collected on ice using lysis buffer (1% Triton X, 150 mM NaCl, 25 mM Tris HCl,0.4 mM NaVO4, 0.4 mM NaF and protease inhibitor cocktail from Sigma, St. Louis, MO, USA) and vortexed periodically for 30 min. Lysates were centrifuged for 15 min at 4° C., and supernatants were collected. Total protein concentrations were determined using Bio-Rad DC Protein Assay reagents (Bio-Rad) following the manufacturer's protocol. Equal amounts of protein for each sample (40 μg to 50 μg per lane) were separated by SDS-PAGE, blotted onto nitrocellulose membranes, blocked with 5% non-fat milk, and probed with the appropriate dilution of the corresponding primary antibody. Once incubated with the primary antibody, membranes were rinsed and incubated with the corresponding HRP-conjugated secondary antibody. Bound antibodies were detected using an enhanced chemiluminescence substrate followed by autoradiography using a FluorChem™ 8900 (Alpha Innotech Corporation, San Leandro, CA, USA). Primary antibodies: anti-LCN2 (AF1757) (24 kDa), (R&D System, MN, USA); Caspase 9 (9502) (47 kDa), Caspase 3 (9665) (35 kDa), Cleaved Caspase 9 (20750) (37 kDa), Cleaved Caspase 3 (9664) (17/19 kDa), PARP-1 (46D11) (89,116 kDa), CDK4 (D9G3D) (30 kDa), CDK6 (DCS83) (36 kDa), Cyclin E1 (HE12) (48 kDa), Cyclin E2 (4132) (48 kDa), p21/Waf1/Cip1 (12D1) (21 kDa), p27/Kip1 (D69C12) (27 kDa), Akt (4685) (60 kDa), p-Akt (Ser473) (4060) (60 kDa) (Cell Signaling, Danvers, MA, USA); anti-β-actin (42 kDa) (Sigma). Secondary antibodies: anti-goat IgG horseradish peroxidase (HRP) (HAF 109) (R&D Systems), anti-mouse and anti-rabbit IgG (HRP) (Cell Signaling).
SUM149 cells (5.0×10^4 cells/mL) were seeded in 10-cm Petri plates and incubated at 37° C. Twenty-four hours later, cells were treated with the LCN2 inhibitors ZINC00784494 and ZINC00640089 at 10 μM and 1 μM concentrations. NT and DMSO (0.2% final concentration) treated cells were used as controls. Cell pellets of each condition were collected at 15 minutes, 1 hour, and 24 hours after drug treatment. The p-AKT Akt and Akt protein levels were assessed by Western blots as above described.

MCF7-EV cells = assay: Colony formation assay, MCF7-EV cells; format: cell-based, human; conditions: 0.1 μM, 1 μM and 10 μM
Method: as §2
For cell viability, SUM149 (5.0×10^4 cells/mL) were seeded in 96-well plates. Twenty-four hours later, cells were treated with serial dilutions (0.01 μM, 0.1 μM, 1.0 μM, 10 μM, and 100 μM, final concentrations) of the LCN2 inhibitors. Seventy-two hours after treatment, cell viability was performed as above described, taking the DMSO (1%) treated OD values as the normalization control. […]

Caspase-3 = Caspase-3 fluorometric activity assay; format: cell-based, human; conditions: positive control, 0.5 nM; cell line not given
Method: Caspase-3 activity was assessed using a caspase-3/CPP32 fluorometric assay kit (Bio Vision, CA, USA) as described in the manufacturer's protocol, with some modifications. Briefly, SUM149 (5.0×10^4 cells/mL) and MDA-IBC3 (5.5×10^4 cells/mL) were seeded in 10 cm Petri dishes and transiently transfected with siRNAs as above described. Docetaxel (0.5 nM final concentration) was used as a positive control. Seventy-two hours post-transfection cells were collected, protein extracts were obtained and incubated with the Asp-Glu-Val-Asp (DEVD) peptide substrate—which is conjugated to the 7-amino-4-trifluoromethyl coumarin (AFC)—at 37° C. for 60 min. Releasing of AFC was measured with a fluorometric plate reader (Varioskan LUX, ThermoFisher, USA) at an excitation wavelength of 400 nm and an emission wavelength of 505 nm. The fold-change increase in caspase-3 activity was determined by comparing the release of AFC from the siRNA-transfected cells with the AFC release by the untreated cells.

Row | increase of caspase-3 activity (Caspase-3) | SMILES | cytotoxicity at 10 µM (SUM149 cells [1]) [%] | reduction in number of colonies formed (SUM149 cells [2]; 10 μM) [%] | decrease in colony formation (MCF7-LCN2 cells; 0.1 μM) [%] | decrease in colony formation (MCF7-LCN2 cells; 1 μM) [%] | decrease in colony formation (MCF7-LCN2 cells; 10 μM) [%] | p-AKT protein levels (p-Akt; 10 μM and 1 μM) | total Akt protein levels (p-Akt) | reduction in number of colonies formed (SUM149 cells [2]; 1 μM) [%] | p-Akt protein levels (p-Akt; 10 μM and 1 μM, 15 minutes and 1 hour after treatment, vs DMSO) | p-Akt protein levels (p-Akt; 24 hours after treatment) | colony formation (MCF7-EV cells)
1 | – | O=C(CN1C(=O)c2cccc3cccc1c23)Nc1ccccc1C(F)(F)F [ZINC00640089] | 35 | 42 | 24 | 54 | 57 | reduced p-Akt in a dose-dependent manner; also recorded: reduction | unaltered | – | – | – | –
2 | – | Cc1cc(-c2ccccc2)nc2cc(C(=O)N3CCCc4ccccc43)nn12 [ZINC00829534] | – | 41 | – | – | – | – | – | – | – | – | –
3 | – | O=C(NC(Nc1ncccn1)C(=O)c1ccccc1)c1ccccc1 (stereo not drawn) [ZINC00230567] | – | 62 | – | – | – | – | – | – | – | – | –
4 | – | CC(=O)c1cccc(Nc2nc(-c3cc4ccccc4oc3=O)cs2)c1 [ZINC00784494] | 57 | 37 | 23 | 41 | 49 | reduced p-Akt in a dose-dependent manner | unaltered | 43 | reduced | not observed | did not cause any effect
5 | two-fold increase | CC(=O)O[C@@]12CO[C@@H]1C[C@H](O)[C@@]1(C)C(=O)[C@H](O)C3=C(C)[C@@H](OC(=O)[C@H](O)[C@@H](NC(=O)OC(C)(C)C)c4ccccc4)C[C@@](O)([C@@H](OC(=O)c4ccccc4)[C@H]21)C3(C)C [Docetaxel] | – | – | – | – | – | – | – | – | – | – | –
